These are literature values, as cited in paper PMC6376154 (International Journal for Parasitology: Drugs and Drug …, 2019).

This data set deals with P. falciparum 3D7 asexual blood stage. The conditions noted are these: cited from earlier work.
The mark [1] stands for this setting: MMV Malaria Box sheet, ref MMV data sheets.
Setting [2] is: MMV Malaria Box sheet, ref MMV data sheets, read-out: EC50_nM.
Setting [3] is: source GNF, ref ChEMBL_NTD, read-out: CHEMBL EC50.
Where [4] appears, read: MMV Malaria Box data sheet, ref MMV data sheets.
The mark [5] stands for this setting: MMV Malaria Box data sheet, ref MMV data sheets, read-out: EC50_nM.
[6] abbreviates: ChEMBL-NTD value per source (GNF, GSK, StJude), several values in a cell follow the order of the sources, read-out: CHEMBL EC50.
Where [7] appears, read: source GSK, ref ChEMBL_NTD, read-out: CHEMBL EC50.
The mark [8] stands for this setting: MMV Malaria Box data sheet (supplement mmc2.xls), ref MMV data sheet, read-out: EC50_nM.
[9] abbreviates: value(s) per source (GSK, GNF, StJude), separated by semicolon, ref ChEMBL-NTD, read-out: CHEMBL EC50.
The mark [10] stands for this setting: MMV Malaria Box data sheet (supplement mmc2.xls), ref MMV data sheet.

Molecules are shown by their SMILES. pEC50: −log10 of the molar value. Like-named read-outs stand apart in the source and are kept apart here.

For the compound `CCOC(=O)c1cnc2c(C)cccc2c1Nc1ccc(C(C)=O)cc1` [MMV006250], under setting [1], the “percent_inh @ 5 uM” value is reported as 94%. In addition, the pEC50 is, setting by setting: under setting [2], 6.50; under setting [3], 6.93.
For `CCc1c(C)c(=N)c2ccccc2n1C` [MMV006278], the “percent_inh @ 5 uM” value under setting [4] was 76%. Moreover, the pEC50 was 6.42 under setting [5] and 6.15 under setting [3].
`CCN(CC)CCNc1ccnc2cc3ccccc3cc12` [MMV006303]: the pEC50 under setting [6] is 7.54.
In the case of `CN(C)c1ccc(C=Cc2nc(=O)c3ccccc3o2)cc1` [MMV006309], under setting [4], the “percent_inh @ 5 uM” value was 96%. The pEC50 under setting [5] is 7.29 and the pEC50 under setting [7] was 7.35.
As to `Cc1cc(Nc2cccc(F)c2)nc(NCc2ccccc2)n1` [MMV006319], the “percent_inh @ 2 uM” value under setting [1] was 97%. Further, the pEC50 runs as follows: under setting [2], 6.18; under setting [3], 7.14.
For the compound `O=C1c2ccccc2C2=Nc3ccccc3SC(c3cccc(F)c3)C12` (stereo not drawn) [MMV006389], the “percent_inh @ 5 uM” value under setting [1] was 94%. For the same compound, the pEC50 under setting [2] was 6.38 and the pEC50 under setting [3] is 7.06.
With `COc1cc(OC)c(N(C)C(=O)c2cc3c(s2)-c2ccccc2S(=O)(=O)C3)cc1Cl` [MMV006427], the “percent_inh @ 5 uM” value under setting [4] is on record as 100%. Further, the pEC50 reads like this: under setting [5], 7.11; under setting [3], 6.95.
For the compound `Cc1cc(NC(=O)C2c3ccccc3C(=O)N(CC(C)C)C2c2cccs2)no1` (stereo not drawn) [MMV006429], the “percent_inh @ 5 uM” value under setting [4] is 100%. Besides, the pEC50 by setting is: under setting [5], 7.48; under setting [3], 7.07.
For the compound `CCOC(=O)c1ccc2nc(-c3ccccc3)cc(O)c2c1` [MMV006457], under setting [4], the “percent_inh @ 5 uM” value is recorded as 96%. In addition, the pEC50 under setting [5] was 6.93 and the pEC50 under setting [3] is 6.26.
Consider `c1ccc2c(NCCc3c[nH]c4ccccc34)c3ccccc3nc2c1` [MMV006513], for which the “percent_inh @ 5 uM” value under setting [1] is given as 97%. Also, the pEC50 was 6.52 under setting [2] and 7.07 under setting [3].
Regarding `CCOc1ccc2nc(C)cc(Nc3ccc(Br)cc3)c2c1` [MMV006522], the pEC50 under setting [6] was 6.95.
Regarding `CCN(CC)CCNc1ncnc2c1[nH]c1ccc(Br)cc12` [MMV006545], the pEC50 is, setting by setting: under setting [8], 6.15; under setting [9], 6.54.
With `Cc1cc(C)c2c(c1)OCN(Cc1ccccc1Cl)C2` [MMV006558], under setting [4], the “percent_inh @ 5 uM” value is on record as 98%. Besides, the pEC50 by setting is: under setting [5], 6.57; under setting [3], 6.72.
As to `Clc1ccc2[nH]c3c(NCCCN4CCOCC4)ncnc3c2c1` [MMV006587], the pEC50 runs as follows: under setting [8], 6.15; under setting [9], 6.96.
With `CCOC(=O)C1=CN(C)C=C(C(=O)OCC)C1c1cc(Br)c(OCC)c(OC)c1` [MMV006656], the pEC50 under setting [6] was 6.04.
Take `CN(C)CCNc1cc(-c2ccccc2)nc2ccccc12` [MMV006704]: the “percent_inh @ 2 uM” value under setting [1] is listed as 92%. For the same compound, the pEC50 under setting [2] was 5.40 and the pEC50 under setting [3] was 6.16.
With `Cc1cc(N2CCN(C3CCCC3)CC2)n2c(nc3ccccc32)c1C#N` [MMV006706], the pEC50 by setting is: under setting [8], 6.17; under setting [9], 6.13.
On to `Cc1cc(=O)oc2c1ccc1oc(C(=O)c3ccccc3)c(C)c12` [MMV006753], for which, under setting [1], the “percent_inh @ 5 uM” value was 94%. Further, the pEC50 under setting [3] was 6.36.
Consider `CCOc1c(Br)cc(C2C(C(=O)OC)=CN(C)C=C2C(=O)OC)cc1OC` [MMV006764], for which the pEC50 under setting [6] was 6.53.
In the case of `COc1cc2cc(C(=O)Nc3ccccc3)c(N)nc2cc1OC` [MMV006767], under setting [10], the “percent_inh @ 5 uM” value is on record as 99%.
Turning to `CC(C)CCNCC(O)Cn1c2ccccc2c2ccccc21` (stereo not drawn) [MMV006787], the “percent_inh @ 5 uM” value under setting [1] was 97%. For the same compound, the pEC50 by setting is: under setting [2], 6.33; under setting [3], 6.70.
Turning to `CCCCc1c(C)nc2c(OC)cccc2c1O` [MMV006820], the “percent_inh @ 2 uM” value under setting [1] is on record as 92%. In addition, the pEC50 by setting is: under setting [2], 5.40; under setting [3], 5.77.
On to `COc1ccc(Nc2cc(C)nc(NCc3ccccc3)n2)cc1` [MMV006825], for which, under setting [6], the pEC50 was 6.82.
As for `c1ccc2cc3c(Nc4ccc(N5CCOCC5)cc4)ccnc3cc2c1` [MMV006861], the “percent_inh @ 5 uM” value under setting [4] was 97%. Moreover, the pEC50 reads like this: under setting [5], 6.60; under setting [3], 6.17.
As to `CCOC(=O)c1cnc2ccc(Cl)cc2c1NCCCN(C)C` [MMV006882], the “percent_inh @ 5 uM” value under setting [1] is on record as 98%. The pEC50 is 5.92 under setting [2] and 6.08 under setting [3].
Regarding `C=CCc1c(C)nc2ccccc2c1O` [MMV006913], under setting [10], the “percent_inh @ 5 uM” value is recorded as 85%. The pEC50 is 5.89 under setting [8] and 6.15 under setting [9].
On to `Cc1ccc(-c2cc3nc4c(c(O)n3n2)CCCC4)cc1` [MMV006937], for which, under setting [4], the “percent_inh @ 5 uM” value is 73%. Besides, the pEC50 under setting [5] was 6.40 and the pEC50 under setting [3] was 5.80.
For `O=C(Nc1ccc(-c2nc3cc(NC(=O)c4ccc(Cl)cc4)ccc3[nH]2)cc1)c1ccc(Cl)cc1` [MMV006962], where the note is “1.25 uM, solubility issue at 5 uM”, the “% inh. At 1.25 uM” value was “Solubility issue at 5 uM. % inh. At 1.25 uM is 48”. The pEC50 under setting [6] was 6.00.
Turning to `CCOc1ccc2nc(C)cc(Nc3ccc(N(C)C)cc3)c2c1` [MMV007020], under setting [6], the pEC50 is 6.46.
As for `Cc1ccc2c(C)nc(Nc3nc(C)cc(-c4ccccc4)n3)nc2c1` [MMV007041], under setting [6], the pEC50 was 6.01.
On to `CCOc1ccc(CN2CCN(CC(O)COc3ccc(OCC(O)CN4CCN(Cc5ccc(OCC)cc5)CC4)cc3)CC2)cc1` (stereo not drawn) [MMV007092], for which the pEC50 under setting [6] is 5.86.
For `c1ccc(C2=Nc3ccccc3N=C(c3ccccc3)c3ccccc32)cc1` [MMV007113], the pEC50 under setting [6] is 6.17.
Turning to `CCOC(=O)c1cnc2ccc(CC)cc2c1O` [MMV007116], the pEC50 under setting [5] was 6.45 and the pEC50 under setting [3] is 6.15.
As for `OC1=C2C(=Nc3ccccc3SC2c2ccc(Br)cc2)c2ccccc21` (stereo not drawn) [MMV007127], the “percent_inh @ 5 uM” value under setting [1] was 97%. In addition, the pEC50 is 6.25 under setting [2] and 6.47 under setting [3].
For the compound `Cc1ccc(N2C3c4ccccc4N(S(=O)(=O)c4ccc(C)cc4)C2c2ccccc2N3S(=O)(=O)c2ccc(C)cc2)cc1` [MMV007160], the “percent_inh @ 5 uM” value under setting [4] is 97%. The pEC50 is, setting by setting: under setting [5], 7.61; under setting [3], 6.14.
As for `Cc1cc(Nc2ccc(OCc3ccccc3)cc2)nc2cc(O)ccc12` [MMV007181], the pEC50 under setting [6] is 7.13.
`COc1ccccc1N1C(=N)SC(=Cc2ccc(OCc3ccccc3F)cc2)C1=O` [MMV007199]: under setting [1], the “percent_inh @ 5 uM” value is on record as 95%. Moreover, the pEC50 under setting [2] is 6.32.
Consider `COc1ccc(OC)c(C2C3=C(CC(C)(C)CC3=O)N(c3ccc(Cl)c(Cl)c3)C3=C2C(=O)CC(C)(C)C3)c1` [MMV007208], for which the “percent_inh @ 5 uM” value under setting [1] is given as 90%. Moreover, the pEC50 by setting is: under setting [2], 6.04; under setting [3], 6.37.
Consider `Cc1cccc(N2C(=O)C3C(C2=O)C2(c4ccccc4)C(=O)C3(c3ccccc3)C(c3ccc4c(c3)OCO4)=C2c2ccc3c(c2)OCO3)c1` (stereo not drawn) [MMV007228], for which the pEC50 under setting [6] was 5.97.
Consider `Cc1ccc(F)cc1NC(=O)c1cc(Cl)ccc1Nc1ccccc1` [MMV007275], for which, under setting [6], the pEC50 was 6.72.
Regarding `CCOc1ccc(Nc2ccnc3cc(Cl)ccc23)cc1` [MMV007285], the pEC50 under setting [6] is 6.02.
For the compound `CCc1ccc(Nc2cc(C)nc3nc(C)nn23)cc1` [MMV007374], under setting [10], the “percent_inh @ 2 uM” value is 81%. The pEC50 was 5.40 under setting [8] and 6.24 under setting [9].
Turning to `COc1ccc(-c2nc3cc(Cc4ccc5[nH]c(-c6ccc(OC)cc6)nc5c4)ccc3[nH]2)cc1` [MMV007384], under setting [4], the “percent_inh @ 5 uM” value was 98%. Moreover, the pEC50 was 6.75 under setting [5] and 6.63 under setting [3].
For `Cc1ccccc1OCCSc1nc2ccc(NC(=O)c3cccs3)cc2s1` [MMV007396], the pEC50 under setting [6] is 6.30.
Take `O=C(NCc1ccco1)C1CCN(S(=O)(=O)c2ccc(Br)cc2)CC1` [MMV007430]: the “percent_inh @ 5 uM” value under setting [10] was 93%. Moreover, the pEC50 runs as follows: under setting [8], 6.03; under setting [9], 6.44.
Turning to `COc1cc2c3cc1Oc1c(OC)c(OC)cc4c1C(Cc1ccc(O)c(c1)Oc1ccc(cc1)CC3N(C)CC2)N(C)CC4` (stereo not drawn) [MMV007474], the pEC50 under setting [6] is 6.00.
With `COc1ccc(CCNC(=O)c2cc(S(=O)(=O)N3CC(C)CC(C)C3)ccc2Sc2ccc(F)cc2)cc1OC` (stereo not drawn) [MMV007557], the “percent_inh @ 5 uM” value under setting [1] is listed as 97%. The pEC50 is 6.20 under setting [2] and 5.98 under setting [3].
In the case of `Cc1ccc(Cn2c(N3CCC(C(=O)NCc4cccs4)CC3)nc3ccccc32)cc1` [MMV007564], the “percent_inh @ 5 uM” value under setting [4] is 73%. For the same compound, the pEC50 is 6.02 under setting [5], 6.28 under setting [3] and 6.13 under setting [7].
Consider `Cc1ccc(CSCc2ccc(C(=O)NC3CC3)o2)cc1` [MMV007571], for which the “percent_inh @ 5 uM” value under setting [10] is given as 97%. Further, the pEC50 is, setting by setting: under setting [8], 6.20; under setting [9], 6.38.
On to `O=C(Nc1ccc(C23CC4CC(CC(c5ccccc5)(C4)C2)C3)cc1)c1cccs1` [MMV007574], for which, under setting [1], the “percent_inh @ 5 uM” value is on record as 96%. The pEC50 under setting [2] was 6.08 and the pEC50 under setting [3] was 6.19.
In the case of `Cc1ccccc1OCCSc1nc2ccc(NC(=O)c3ccccc3)cc2s1` [MMV007577], under setting [1], the “percent_inh @ 5 uM” value is recorded as 93%. In addition, the pEC50 is 5.95 under setting [2] and 5.01 under setting [3].
As for `COc1ccc(C(=O)C(CCC(CNC(C)(C)C)C(=O)c2ccc(OC)cc2)CNC(C)(C)C)cc1` (stereo not drawn) [MMV007591], under setting [6], the pEC50 is 5.95.
As for `CC(=O)NCCc1nc2ccccc2n1Cc1ccc(C(C)C)cc1` [MMV007617], the “percent_inh @ 5 uM” value under setting [10] is 97%. Also, the pEC50 by setting is: under setting [8], 5.75; under setting [9], 6.12.
For `Cc1ccc(C)c(-c2csc(Nc3ccc(C)c(C)c3)n2)c1` [MMV007654], the pEC50 under setting [6] is 6.31.
